Experiment [1] concerns the target T1, human GLP-1R (Homo sapiens, UniProt P43220). The experiment in a line: Human GLP-1 Receptor HEK293 cell cAMP assay, 581 fmol/mg GLP-1R expression density. Format: cell-based. Also on record: expressed in transfected cells; host or cells: HEK293 clonal cell line. The following applies: HEK293 cell line with 581 fmol/mg expression density of GLP-1R; for EC50: geometric mean, read-out: EC50 nM (SEM, n), intracellular cAMP response, relative EC50; for Emax: percent of maximal response to GLP-1(7-36)NH2, arithmetic mean, read-out: Emax % (SEM, n), intracellular cAMP response. Here is the method:
(§1) Human GLP-1 Receptor HEK293 Cell cAMP Assay
(§2) GLP-1 Receptor functional activity is determined using cAMP formation in an HEK293 clonal cell line expressing human GLP-1R (NCBI accession number NP_002053) at an expression density of 581±94 (n=6) and 104±12 (n=5) fmol/mg protein (determined using [^125I]GLP-1(7-36)NH2 homologous competition binding analysis). The hGLP-1R receptor expressing cells are treated with compound (20 point concentration-response curve in DMSO, 2.75-fold Labcyte Echo direct dilution, 384 well plate Corning Cat #3570) in DMEM (Gibco Cat #31053) supplemented with 1× GlutaMAX™ (Gibco Cat #35050), 0.1% bovine casein (Sigma C4765-10ML), 250 μM IBMX (3-Isobutyl-1-methylxanthine, Acros Cat #228420010) and 20 mM HEPES (Gibco Cat #15630) in a 20 μL assay volume (final DMSO concentration is 0.5%). After a 30 min incubation at 37° C., the resulting increase in intracellular cAMP is quantitatively determined using the CisBio cAMP Dynamic 2 HTRF Assay Kit (62AM4PEJ). Briefly, cAMP levels within the cell are detected by adding the cAMP-d2 conjugate in cell lysis buffer (10 μL) followed by the antibody anti-cAMP-Eu^3+-Cryptate, also in cell lysis buffer (10 μL). The resulting competitive assay is incubated for at least 60 min at RT, then detected using a PerkinElmer Envision® instrument with excitation at 320 nm and emission at 665 nm and 620 nm. Envision units (emission at 665 nm/620 nm*10,000) are inversely proportional to the amount of cAMP present and are converted to nM cAMP per well using a cAMP standard curve. The amount of cAMP generated (nM) in each well is converted to a percent of the maximal response observed with human GLP-1(7-36)NH2. A relative EC50 value and percent top (Emax) are derived by non-linear regression analysis using the percent maximal response vs. the concentration of compound added, fitted to a four-parameter logistic equation.
Background: cAMP levels reflect the balance of adenylyl cyclase and phosphodiesterase activity.

Experiment [2] deals with T1, human GLP-1R. The experiment in a line: Human GLP-1 Receptor HEK293 cell cAMP assay, 104 fmol/mg GLP-1R expression density. Format: cell-based. On the set-up: expressed in transfected cells; host or cells: HEK293 clonal cell line. The following applies: HEK293 cell line with 104 fmol/mg expression density of GLP-1R; for EC50: geometric mean, read-out: EC50 nM (SEM, n), intracellular cAMP response, relative EC50; for Emax: percent of maximal response to GLP-1(7-36)NH2, arithmetic mean, read-out: Emax % (SEM, n), intracellular cAMP response. Here is the method: as §1, §2

Molecules are shown by their SMILES.

T1 sequence (P43220 24-463): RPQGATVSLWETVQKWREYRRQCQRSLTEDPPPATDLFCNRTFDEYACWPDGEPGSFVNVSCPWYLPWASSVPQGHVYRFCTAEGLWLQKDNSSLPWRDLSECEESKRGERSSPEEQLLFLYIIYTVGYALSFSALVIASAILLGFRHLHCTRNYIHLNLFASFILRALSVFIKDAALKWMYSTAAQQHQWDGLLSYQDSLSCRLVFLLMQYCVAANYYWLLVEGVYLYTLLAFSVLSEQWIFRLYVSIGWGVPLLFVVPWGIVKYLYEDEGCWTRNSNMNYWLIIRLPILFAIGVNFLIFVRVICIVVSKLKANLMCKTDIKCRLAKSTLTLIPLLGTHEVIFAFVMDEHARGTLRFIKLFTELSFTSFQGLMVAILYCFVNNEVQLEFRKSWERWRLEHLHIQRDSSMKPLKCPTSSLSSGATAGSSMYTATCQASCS

Regarding `N#Cc1ccc2c(c1)CCOCc1cc(ccc1Cc1nc3ccc(C(=O)O)cc3n1C[C@@H]1CCO1)-c1cccc(n1)OC2` [Example 19, (S)-2-((5^4-Cyano-3,8-dioxa-2(2,6)-pyridina-1(1,3),5(1,2)-dibenzenacyclononaphane-1^4-yl)methyl)-1-(oxetan-2-ylmethyl)-1H-benzo[d]imidazole-6-carboxylic acid], on human GLP-1R [1], the EC50 (as a rule, the concentration giving half of the maximal effect) stood at 55.4 nM and the Emax (commonly the maximal effect, on the per cent scale that the assay sets) was determined as 103%. On human GLP-1R [2], the EC50 was 197 nM and the maximal response (Emax) is 83%.
On the same counts, the results for `N#Cc1ccc2c(c1)CCOc1cc(c(F)cc1Cc1nc3ccc(C(=O)O)cc3n1C[C@@H]1CCO1)-c1cccc(n1)OC2` [Example 20, (S)-2-((5^4-Cyano-1^6-fluoro-3,8-dioxa-2(2,6)-pyridina-1(1,3),5(1,2)-dibenzenacyclooctaphane-1^4-yl)methyl)-1-(oxetan-2-ylmethyl)-1H-benzo[d]imidazole-6-carboxylic acid] are 58 nM, 105%, 226 nM and 89.9%.
On the same counts, the results for `N#Cc1ccc2cc1CCOCc1cc(ccc1Cc1nc3ccc(C(=O)O)cc3n1C[C@@H]1CCO1)-c1cccc(n1)OC2` [Example 21, (S)-2-((5^4-Cyano-3,8-dioxa-2(2,6)-pyridina-1,5(1,3)-dibenzenacyclononaphane-1^4-yl)methyl)-1-(oxetan-2-ylmethyl)-1H-benzo[d]imidazole-6-carboxylic acid] are 35.1 nM, 111%, 133 nM and 95.6%.
On the same counts, the results for `COc1cc(C(=O)O)cc2c1nc(Cc1cc(C)c3cc1OCCCc1cc(F)ccc1COc1cccc-3n1)n2C[C@@H]1CCO1` [Example 22, (S)-4-Methoxy-2-((1^6-methyl-5^4-(fluoro)-3,9-dioxa-2(2,6)-pyridina-1(1,3),5(1,2)-dibenzenacyclononaphane-1^4-yl)methyl)-1-(oxetan-2-ylmethyl)-1H-benzo[d]imidazole-6-carboxylic acid] are 2.86 nM, 112%, 10.6 nM and 80.9%.
As for `COc1cc(C(=O)O)cc2c1nc(Cc1ccc3cc1OCCCc1cc(C#N)ccc1COc1cccc-3n1)n2Cc1ncco1` [Example 23, 2-((5^4-Cyano-3,9-dioxa-2(2,6)-pyridina-1(1,3),5(1,2)-dibenzenacyclononaphane-1^4-yl)methyl)-4-methoxy-1-(oxazol-2-ylmethyl)-1H-benzo[d]imidazole-6-carboxylic acid], at human GLP-1R [1], the concentration giving a half-maximal response (EC50) stood at 69.3 nM and the maximal response (Emax) was determined as 106%. Also, on human GLP-1R [2], the EC50 amounted to 344 nM and the Emax came to 83.7%.
As for `COCCOc1cc(C(=O)O)cc2c1nc(Cc1ccc3cc1OCCCc1cc(C#N)ccc1COc1cccc-3n1)n2C[C@@H]1CCO1` [Example 24, (S)-2-((5^4-Cyano-3,9-dioxa-2(2,6)-pyridina-1(1,3),5(1,2)-dibenzenacyclononaphane-1^4-yl)methyl)-4-(2-methoxyethoxy)-1-(oxetan-2-ylmethyl)-1H-benzo[d]imidazole-6-carboxylic acid], at human GLP-1R [1], the EC50 is 2.34 nM and the Emax turned out to be 116%. Besides, at human GLP-1R [2], the EC50 was determined as 6.6 nM and the maximum response (Emax) was 89.6%.
In the same order, the values of `O=C(O)c1ccc2nc(Cc3ccc4cc3OCCCc3cc(CO)ccc3COc3cccc-4n3)n(C[C@@H]3CCO3)c2c1` [Example 25, (S)-2-((5^4-(Hydroxymethyl)-3,9-dioxa-2(2,6)-pyridina-1(1,3),5(1,2)-dibenzenacyclononaphane-1^4-yl)methyl)-1-(oxetan-2-ylmethyl)-1H-benzo[d]imidazole-6-carboxylic acid] are 317 nM, 98.3%, 703 nM and 62.1%.
On the same counts, the results for `COc1cc(C(=O)O)cc2c1nc(Cc1cc(C)c3cc1OCCCc1nc(C(F)(F)F)ccc1COc1cccc-3n1)n2C[C@@H]1CCO1` [Example 26, (S)-4-Methoxy-2-((1^6-methyl-5^6-(trifluoromethyl)-3,9-dioxa-2(2,6),5(3,2)-dipyridina-1(1,3)-benzenacyclononaphane-1^4-yl)methyl)-1-(oxetan-2-ylmethyl)-1H-benzo[d]imidazole-6-carboxylic acid; 1,3,4,6,7,8-hexahydro-2H-pyrimido[1,2-a]pyrimidine] are 1.66 nM, 116%, 5.64 nM and 91.3%.
On the same counts, the results for `COc1cc(C(=O)O)cc2c1nc(Cc1cc(C)c3cc1OCCCc1cnccc1COc1cccc-3n1)n2C[C@@H]1CCO1` [Example 27, (S)-4-Methoxy-2-((1^6-methyl-3,9-dioxa-2(2,6),5(4,3)-dipyridina-1(1,3)-benzenacyclononaphane-1^4-yl)methyl)-1-(oxetan-2-ylmethyl)-1H-benzo[d]imidazole-6-carboxylic acid] are 50.7 nM, 107%, 165 nM and 82.5%.
On to `O=C(O)c1ccc2nc(Cc3ccc4cc3OCCCc3cc(-c5cnn(CC6COC6)c5)ccc3COc3cccc-4n3)n(C[C@@H]3CCO3)c2c1` [Example 28, (S)-1-(Oxetan-2-ylmethyl)-2-((5^4-(1-(oxetan-3-ylmethyl)-1H-pyrazol-4-yl)-3,9-dioxa-2(2,6)-pyridina-1(1,3),5(1,2)-dibenzenacyclononaphane-1^4-yl)methyl)-1H-benzo[d]imidazole-6-carboxylic acid], for which, at human GLP-1R [1], the 50% effective concentration (EC50) is 98.4 nM and the Emax was 104%. In addition, at human GLP-1R [2], the concentration giving a half-maximal response (EC50) was determined as 287 nM and the maximal effect (Emax) came to 74.9%.
In the same order, the values of `COc1ccc(-c2ccc3c(c2)CCCOc2cc(ccc2Cc2nc4ccc(C(=O)O)cc4n2C[C@@H]2CCO2)-c2cccc(n2)OC3)cn1` [Example 29, (S)-2-((5^4-(6-Methoxypyridin-3-yl)-3,9-dioxa-2(2,6)-pyridina-1(1,3),5(1,2)-dibenzenacyclononaphane-1^4-yl)methyl)-1-(oxetan-2-ylmethyl)-1H-benzo[d]imidazole-6-carboxylic acid] are 262 nM, 92.4%, 562 nM and 59.2%.
In the same order, the values of `O=C(O)c1ccc2nc(Cc3ccc4cc3OCCCc3cc(-c5cn[nH]c5)ccc3COc3cccc-4n3)n(C[C@@H]3CCO3)c2c1` [Example 30, (S)-2-((5^4-(1H-Pyrazol-4-yl)-3,9-dioxa-2(2,6)-pyridina-1(1,3),5(1,2)-dibenzenacyclononaphane-1^4-yl)methyl)-1-(oxetan-2-ylmethyl)-1H-benzo[d]imidazole-6-carboxylic acid] are 35.6 nM, 98.1%, 118 nM and 77.1%.
On the same counts, the results for `Cn1nccc1-c1ccc2c(c1)CCCOc1cc(ccc1Cc1nc3ccc(C(=O)O)cc3n1C[C@@H]1CCO1)-c1cccc(n1)OC2` [Example 31, (S)-2-((5^4-(1-Methyl-1H-pyrazol-5-yl)-3,9-dioxa-2(2,6)-pyridina-1(1,3),5(1,2)-dibenzenacyclononaphane-1^4-yl)methyl)-1-(oxetan-2-ylmethyl)-1H-benzo[d]imidazole-6-carboxylic acid] are 70.1 nM, 104%, 251 nM and 88.8%.
`Cn1ncc(-c2ccc3c(c2)CCCOc2cc(ccc2Cc2nc4ccc(C(=O)O)cc4n2C[C@@H]2CCO2)-c2cccc(n2)OC3)n1` [Example 32, (S)-2-((5^4-(2-Methyl-2H-1,2,3-triazol-4-yl)-3,9-dioxa-2(2,6)-pyridina-1(1,3),5(1,2)-dibenzenacyclononaphane-1^4-yl)methyl)-1-(oxetan-2-ylmethyl)-1H-benzo[d]imidazole-6-carboxylic acid]: at human GLP-1R [1], the EC50 stood at 178 nM and the Emax is 98.9%. Also, at human GLP-1R [2], the EC50 amounted to 530 nM and the Emax is 70.9%.

These data come from patent US20240343740A1, “MACROCYCLIC GLUCAGON-LIKE PEPTIDE 1 RECEPTOR AGONISTS” (Eli Lilly and Company, priority 2021, published 2024).
